For the experiment, the system named is Sprague-Dawley rats. Put plainly: Glucose lowering following oral administration to the fasted, normal rat. As to conditions: maximum lowering relative to saline controls, 10 mg/kg oral, 18-h fasted rats. It is filed as in vivo. On the procedure:
Compounds were administered by oral gavage to 18-h fasted, Sprague-Dawley rats (250-300 g, n=3/4/group) at a dose of 10 mg/kg. Phosphonic acids (active moieties) were prepared in deionized water, and the solution adjusted to neutrality with sodium hydroxide. Prodrugs were dissolved in polyethylene glycol (mw 400). Blood samples were taken via tail vein nick immediately prior to dosing and at 1 h intervals thereafter. Blood glucose was analyzed by means of a HemoCue glucose analyzer (HemoCue Inc., Mission Viejo, Calif.). The table below indicates the maximum % glucose lowering achieved relative to control animals dosed with saline.

For 39 compounds, inhibition in vivo results are on record in patent US20080070868A1, “Novel Thiazole Inhibitors of Fructose 1,6-bisphosphatase” (Metabasis Therapeutics, Inc., priority 2004, published 2008).

In general, inhibition in vivo refers to the relative decrease from the control value, in per cent. High values mean a strong effect, low ones a weak effect. As for `CCOC(=O)[C@H](C)NP(=O)(N[C@@H](C)C(=O)OCC)c1ccc(-c2nc(N)sc2C(=O)C(C)(CC)CC)o1` [Compound 2.7, 2-amino-5-(2-ethyl-2-methylbutyryl)-4-{[5-(N,N′-((S)-1-ethoxycar-bonyl)ethyl)phosphonamido]furan-2-yl}thiazole], the inhibition in vivo at 10 mg/kg is 10%. Consider `CCC(C)(C)C(=O)c1sc(N)nc1-c1ccc(P(=O)(NC(C)(C)C(=O)OC(C)C)NC(C)(C)C(=O)OC(C)C)o1` [Compound 2.8], for which testing at 10 mg/kg gave an inhibition in vivo of 14%.

Turning to `CCOC(=O)C(C)(C)NP(=O)(NC(C)(C)C(=O)OCC)c1ccc(-c2nc(N)sc2C(=O)C(C)(C)CC)o1` [Compound 2.9], the inhibition in vivo at 10 mg/kg turned out to be 24%. The compound `CCOC(=O)[C@H](C)NP(=O)(N[C@@H](C)C(=O)OCC)c1ccc(-c2nc(N)sc2C(=O)C(C)(C)CC)o1` [Compound 2.10, 2-amino-5-(2,2-dimethylbutyryl)-4-{[5-(N,N′-((S)-1-ethoxycarbonyl)-ethyl)phosphonamido]furan-2-yl}thiazole] displayed an inhibition in vivo at 10 mg/kg of 12%.

`CCC(C)(CC)C(=O)c1sc(N)nc1-c1ccc(P(=O)(N[C@@H](C)C(=O)OC(C)C)N[C@@H](C)C(=O)OC(C)C)o1` [Compound 2.11, 2-amino-5-(2-ethyl-2-methylbutyryl)-4-{[5-(N,N′-((S)-1-isopropyloxy-carbonyl)-ethyl)phosphonamido]furan-2-yl}thiazole]: the inhibition in vivo at 10 mg/kg came out at 13%.

In the case of `CCC(C)(C)C(=O)c1sc(N)nc1-c1ccc(P(=O)(NCC(=O)OC(C)(C)C)NCC(=O)OC(C)(C)C)o1` [Compound 2.12, 2-amino-5-(2,2-dimethylbutyryl)-4-{[5-(N,N′-tert-butyloxycarbonyl-methyl)phosphonamido]furan-2-yl}thiazole], at 10 mg/kg the inhibition in vivo was 10%. The compound `CCOC(=O)[C@H](C)NP(=O)(N[C@@H](C)C(=O)OCC)c1ccc(-c2nc(N)sc2C(=O)c2ccccc2C)o1` [Compound 2.14, 2-amino-5-(2-methylbenzoyl)-4-{[5-(N,N′-((S)-1-ethyl-oxycarbonyl)ethyl)-phosphonamido]furan-2-yl}thiazole] returned an inhibition in vivo at 10 mg/kg of 20%. For the compound `CCOC(=O)C(C)(C)NP(=O)(NC(C)(C)C(=O)OCC)c1ccc(-c2nc(N)sc2C(=O)c2ccccc2C)o1` [Compound 2.15], testing at 10 mg/kg gave an inhibition in vivo of 8%. For the compound `CCOC(=O)[C@H](C)NP(=O)(N[C@@H](C)C(=O)OCC)c1ccc(-c2nc(N)sc2C(=O)c2ccc(C)cc2)o1` [Compound 2.16, 2-amino-5-(4-methylbenzoyl)-4-{[5-(N,N′-((S)-1-ethyl-oxycarbonyl)ethyl)-phosphonamido]furan-2-yl}thiazole], at 10 mg/kg the inhibition in vivo was 6%. In turn, `CCOC(=O)C(C)(C)NP(=O)(NC(C)(C)C(=O)OCC)c1ccc(-c2nc(N)sc2C(=O)c2ccc(C)cc2)o1` [Compound 2.17] gave an inhibition in vivo at 10 mg/kg of 10%. `CC(C)OC(=O)[C@H](C)NP(=O)(N[C@@H](C)C(=O)OC(C)C)c1ccc(-c2nc(N)sc2C(=O)c2cccc(F)c2)o1` [Compound 2.18, 2-amino-5-(3-fluorobenzoyl)-4-{[5-(N,N′-((S)-1-isopropyl-oxycarbonyl)ethyl)-phosphonamido]furan-2-yl}thiazole] registered an inhibition in vivo at 10 mg/kg of 13%. `CCOC(=O)[C@H](C)NP(=O)(N[C@@H](C)C(=O)OCC)c1ccc(-c2nc(N)sc2C(=O)c2cccc(F)c2)o1` [Compound 2.19, 2-amino-5-(3-fluorobenzoyl)-4-{[5-(N,N′-((S)-1-ethyloxy-carbonyl)ethyl)-phosphonamido]furan-2-yl}thiazole] had an inhibition in vivo at 10 mg/kg of 16%. Regarding `Cc1ccc(C(=O)c2sc(N)nc2-c2ccc(P(=O)(NC(C)(C)C(=O)OC(C)C)NC(C)(C)C(=O)OC(C)C)o2)cc1` [Compound 2.20], the inhibition in vivo at 10 mg/kg was 6%. `Cc1ccccc1C(=O)c1sc(N)nc1-c1ccc(P(=O)(NC(C)(C)C(=O)OC(C)C)NC(C)(C)C(=O)OC(C)C)o1` [Compound 2.21] had an inhibition in vivo at 10 mg/kg of 9%. Turning to `Cc1ccccc1C(=O)c1sc(N)nc1-c1ccc(P(=O)(N[C@@H](C)C(=O)OC(C)C)N[C@@H](C)C(=O)OC(C)C)o1` [Compound 2.22, 2-amino-5-(2-methylbenzoyl)-4-{[5-(N,N′-((S)-1-isopropyl-oxycarbonyl)ethyl)-phosphonamido]furan-2-yl}thiazole], the inhibition in vivo at 10 mg/kg is 9%. Consider `CCOC(=O)C(C)(C)NP(=O)(NC(C)(C)C(=O)OCC)c1ccc(-c2nc(N)sc2C(=O)C(CC)CC)o1` [Compound 2.23], for which the inhibition in vivo at 10 mg/kg was 12%. In turn, `CCOC(=O)[C@H](C)NP(=O)(N[C@@H](C)C(=O)OCC)c1ccc(-c2nc(N)sc2C(=O)C(CC)CC)o1` [Compound 2.24, 2-amino-5-(2-ethylbutyryl)-4-{[5-(N,N′-((S)-1′-ethyl-oxycarbonyl)ethyl)-phosphonamido]furan-2-yl}thiazole] showed an inhibition in vivo at 10 mg/kg of 19%.

Compound `CCC(CC)C(=O)c1sc(N)nc1-c1ccc(P(=O)(NC(C)(C)C(=O)OC(C)C)NC(C)(C)C(=O)OC(C)C)o1` [Compound 2.25] yielded an inhibition in vivo at 10 mg/kg of 10%. `CCC(CC)C(=O)c1sc(N)nc1-c1ccc(P(=O)(N[C@@H](C)C(=O)OC(C)C)N[C@@H](C)C(=O)OC(C)C)o1` [Compound 2.26, 2-amino-5-(2-ethylbutyryl)-4-{[5-(N,N′-((S)-1-isopropyl-oxycarbonyl)ethyl)-phosphonamido]furan-2-yl}thiazole]: at 10 mg/kg the inhibition in vivo was 16%. `CCOC(=O)C(C)(C)NP(=O)(NC(C)(C)C(=O)OCC)c1ccc(-c2nc(N)sc2C(=O)c2cccc(F)c2)o1` [Compound 2.27] displayed an inhibition in vivo at 10 mg/kg of 6%. For `CC(C)OC(=O)C(C)(C)NP(=O)(NC(C)(C)C(=O)OC(C)C)c1ccc(-c2nc(N)sc2C(=O)c2cccc(F)c2)o1` [Compound 2.28], at 10 mg/kg the inhibition in vivo was 10%. `CCOC(=O)C(C)(C)NP(=O)(NC(C)(C)C(=O)OCC)c1ccc(-c2nc(N)sc2C(=O)C2CCC2)o1` [Compound 2.29] gave an inhibition in vivo at 10 mg/kg of 12%. The compound `CCOC(=O)[C@H](C)NP(=O)(Oc1ccc2c(c1)OCO2)c1ccc(-c2nc(N)sc2C(=O)C(CC)CC)o1` (stereo partly drawn) [Compound 5.1] showed an inhibition in vivo at 10 mg/kg of 8%. The compound `CCOC(=O)C(C)(C)NP(=O)(Oc1ccc2c(c1)OCO2)c1ccc(-c2nc(N)sc2C(=O)C(C)(C)C)o1` (stereo not drawn) [Compound 5.3] had an inhibition in vivo at 10 mg/kg of 51%. `CCOC(=O)COP(=O)(NC(C)(C)C(=O)OCC)c1ccc(-c2nc(N)sc2C(=O)C2CCC2)o1` (stereo not drawn) [Compound 5.4] came in with an inhibition in vivo at 10 mg/kg of 16%.

The compound `CCOC(=O)C(C)(C)NP(=O)(OCC(=O)OCc1ccccc1)c1ccc(-c2nc(N)sc2C(=O)C(C)(C)C)o1` (stereo not drawn) [Compound 5.5] registered an inhibition in vivo at 10 mg/kg of 20%.

`CCOC(=O)COP(=O)(N[C@@H](C)C(=O)OC(C)C)c1ccc(-c2nc(N)sc2C(=O)C(C)(C)C)o1` (stereo partly drawn) [Compound 5.6, 2-amino-5-(2,2-dimethylpropionyl)-4-{2-[5-(N-((S)-1-isopropyloxy-carbonyl)ethyl)-O-(ethoxycarbonylmethyl)monophosphonamido]furanyl}-thiazole] came in with an inhibition in vivo at 10 mg/kg of 4%. The figure for `CCOC(=O)COP(=O)(NC(C)(C)C(=O)OC(C)C)c1ccc(-c2nc(N)sc2C(=O)C(C)(C)C)o1` (stereo not drawn) [Compound 5.7] is 25%; for `CCOC(=O)COP(=O)(N[C@@H](C)C(=O)OCC)c1ccc(-c2nc(N)sc2C(=O)C(C)(C)C)o1` (stereo partly drawn) [Compound 5.8, 2-amino-5-(2,2-dimethylpropionyl)-4-{2-[5-(N-((S)-1-ethoxy-carbonyl)ethyl)-O-(ethoxycarbonylmethyl)monophosphonamido]furanyl}-thiazole] it is 10%. In the case of `CCOC(=O)[C@H](C)OP(=O)(NC(C)(C)C(=O)OCC)c1ccc(-c2nc(N)sc2C(=O)C(C)(C)C)o1` (stereo partly drawn) [Compound 5.9] it was 10%; in that of `CCOC(=O)C(C)(C)NP(=O)(O[C@@H](C)C(=O)OC(C)C)c1ccc(-c2nc(N)sc2C(=O)C(C)(C)C)o1` (stereo partly drawn) [Compound 5.10], 4%. Take `CCOC(=O)COP(=O)(NC(C)(C)C(=O)OCC)c1ccc(-c2nc(N)sc2C(=O)C(CC)CC)o1` (stereo not drawn) [Compound 5.12]: the inhibition in vivo at 10 mg/kg worked out at 38%. `CCC(CC)C(=O)c1sc(N)nc1-c1ccc(P(=O)(OCCSC(=O)c2ccccc2)OCCSC(=O)c2ccccc2)o1` [Compound 6.2] yielded an inhibition in vivo at 10 mg/kg of 3%. On to `CC(C)(C)C(=O)c1sc(N)nc1-c1ccc(P(=O)(OCCSC(=O)c2ccccc2)OCCSC(=O)c2ccccc2)o1` [Compound 6.5], for which the inhibition in vivo at 10 mg/kg was 9%.

`CCOC(=O)SCCOP(=O)(OCCSC(=O)OCC)c1ccc(-c2nc(N)sc2C(=O)C(C)(C)C)o1` [Compound 6.6]: the inhibition in vivo at 10 mg/kg worked out at 4%.

In turn, `CC(=O)SC1CCCCC1OP(=O)(OC1CCCCC1SC(C)=O)c1ccc(-c2nc(N)sc2C(=O)C(C)(C)C)o1` (stereo not drawn) [Compound 6.8] came in with an inhibition in vivo at 10 mg/kg of 1%. Take `CC(C)(C)C(=O)c1sc(N)nc1-c1ccc(P2(=O)OCC[C@@H](c3cccc(Cl)c3)O2)o1` (stereo partly drawn) [Compound 7.1, (cis)-2-amino-5-(2,2-dimethylpropionyl)-4-{[5-(4-(3-chlorophenyl)-2-oxo-1,3,2-phosphorinan-2-yl)]furan-2-yl}thiazole]: the inhibition in vivo at 10 mg/kg amounted to 70%.

As for `CC(C)(C)C(=O)c1sc(N)nc1-c1ccc(P2(=O)OCC[C@H](c3cccc(Cl)c3)O2)o1` (stereo partly drawn) [Compound 7.2, (trans)-2-amino-5-(2,2-dimethylpropionyl)-4-{[5-(4-(3-chlorophenyl)-2-oxo-1,3,2-phosphorinan-2-yl)]furan-2-yl}thiazole], testing at 10 mg/kg gave an inhibition in vivo of 3%.

On to `CCC(CC)C(=O)c1sc(N)nc1-c1ccc(P(=O)(OCOC(=O)C(C)(C)C)OCOC(=O)C(C)(C)C)o1` [Compound 8.2, 2-amino-5-(2-ethylbutyryl)-4-{[5-(O,O′-bis(pivalyloxymethyl)-phosphono)]-furan-2-yl}thiazole], for which testing at 10 mg/kg gave an inhibition in vivo of 10%.
